Reference: ChEMBL document CHEMBL1153261, “Retro-Inverso Tripeptide Renin Inhibitors” (Bioorg Med Chem Lett, 1992)
Square brackets hold non-standard residues; d marks the D form. Peptide text beside a SMILES is read from it. * marks the point of attachment. Leu(ol) = CC(C)C[C@H](N)CO; Boc = CC(C)(C)OC(=O)*

Target: T1, Renin (Homo sapiens, UniProt P00797)
T1 sequence (P00797 whole entry): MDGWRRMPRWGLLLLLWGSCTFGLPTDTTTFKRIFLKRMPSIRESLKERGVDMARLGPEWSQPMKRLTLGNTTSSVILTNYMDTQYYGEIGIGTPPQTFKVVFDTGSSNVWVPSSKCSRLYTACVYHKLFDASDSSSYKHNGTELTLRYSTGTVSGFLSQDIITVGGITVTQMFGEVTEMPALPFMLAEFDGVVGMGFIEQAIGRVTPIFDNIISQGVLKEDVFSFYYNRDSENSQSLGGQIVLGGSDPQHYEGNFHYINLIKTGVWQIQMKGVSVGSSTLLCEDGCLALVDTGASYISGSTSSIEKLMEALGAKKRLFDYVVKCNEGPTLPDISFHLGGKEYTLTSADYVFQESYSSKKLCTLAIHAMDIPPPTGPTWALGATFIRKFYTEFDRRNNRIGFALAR
Assay: Compound was evaluated for inhibitory activity against renin
Settings: read-out: I50

Structure (SMILES) | IC50
CC(C)C[C@@H](CO)C(=O)N[C@H](Cc1c[nH]cn1)C(=O)N[C@H](Cc1ccccc1)C(=O)NCC(C)(C)C | 20 µM
CC(C)C[C@@H](CO)NC(=O)[C@H](Cc1c[nH]cn1)C(=O)N[C@H](Cc1ccccc1)C(=O)NCC(C)(C)C | 1200 µM
CC(C)C[C@H](CO)C(=O)N[C@H](Cc1c[nH]cn1)C(=O)N[C@H](Cc1ccccc1)C(=O)NCC(C)(C)C | 80 µM
CC(C)C[C@@H](CO)NC(=O)[C@H](Cc1cnc[nH]1)NC(=O)[C@H](Cc1ccccc1)NC(=O)OC(C)(C)C (Boc-Phe-His-[Leu(ol)]) | 16 µM
